How the values were obtained:
Type in all cases: biochemical
[1] = target: T1, AmcH (Streptomyces novoguineensis, UniProt A0A4Y5QVH7); assay: LC-ESI-HRMS of acyl-AmcB; details: 200 uM AmcB, 0.2 uM AmcH, 1 mM 2-OG, 5 mM ATP, 25 mM MgCl2, 50 mM Tris-HCl pH 8.0, 30 °C, 1 h
T1 construct: AmcH purified from Streptomyces albus G153; AmcB (holo form, with phosphopantetheine arm) from E. coli BL21(DE3), pET26b(+), is the acyl acceptor; with Acyl carrier protein AmcB
T1 sequence (A0A4Y5QVH7 1-460): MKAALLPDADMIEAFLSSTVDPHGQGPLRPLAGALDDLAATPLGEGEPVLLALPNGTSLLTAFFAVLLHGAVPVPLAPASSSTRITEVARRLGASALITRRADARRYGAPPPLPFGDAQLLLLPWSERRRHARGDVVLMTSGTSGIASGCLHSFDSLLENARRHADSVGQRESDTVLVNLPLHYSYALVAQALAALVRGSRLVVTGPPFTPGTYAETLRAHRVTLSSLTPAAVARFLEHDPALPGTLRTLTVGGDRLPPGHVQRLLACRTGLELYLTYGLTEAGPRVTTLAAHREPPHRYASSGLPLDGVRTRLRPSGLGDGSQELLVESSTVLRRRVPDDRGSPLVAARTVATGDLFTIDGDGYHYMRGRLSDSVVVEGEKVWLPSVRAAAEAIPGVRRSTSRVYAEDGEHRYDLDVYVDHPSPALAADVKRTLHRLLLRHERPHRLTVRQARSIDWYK

[2] = target: T1, AmcH; assay: HPLC of ATP consumption and AMP formation; details: 500 uM AmcB, 1 uM AmcH, 1 mM 2-OG, 2 mM ATP, 25 mM MgCl2, pH 8.0, 30 °C
[3] = target: T2, sFabI (Streptomyces albidoflavus, UniProt D6BBL6); assay: PPant ejection assay / LC-HRMS of 4-AmcB formation; details: 1 mM NADH, 200 uM gel-filtered 3-AmcB, 8 uM enzyme, 20 mM Tris-HCl pH 8.0, 150 mM NaCl, 30 °C, 1 h
T2 construct: gene fabI; C-terminal His tag, pET26b(+), E. coli BL21(DE3)
T2 sequence (D6BBL6 1-259): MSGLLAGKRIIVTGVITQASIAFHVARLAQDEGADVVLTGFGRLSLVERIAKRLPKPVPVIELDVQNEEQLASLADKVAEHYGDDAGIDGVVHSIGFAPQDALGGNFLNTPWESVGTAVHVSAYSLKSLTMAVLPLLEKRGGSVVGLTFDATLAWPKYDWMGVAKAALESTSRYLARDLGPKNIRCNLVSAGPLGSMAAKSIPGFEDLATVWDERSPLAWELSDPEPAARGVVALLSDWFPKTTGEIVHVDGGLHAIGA

[4] = target: T3, eFabI (Escherichia coli, UniProt P0AEK4); assay: PPant ejection assay / LC-HRMS of 4-AmcB formation; details: 1 mM NADH, 200 uM gel-filtered 3-AmcB, 8 uM enzyme, 20 mM Tris-HCl pH 8.0, 150 mM NaCl, 30 °C, 1 h
T3 construct: gene fabI; C-terminal His tag, pET26b(+), E. coli BL21(DE3)
T3 sequence (P0AEK4 2-262): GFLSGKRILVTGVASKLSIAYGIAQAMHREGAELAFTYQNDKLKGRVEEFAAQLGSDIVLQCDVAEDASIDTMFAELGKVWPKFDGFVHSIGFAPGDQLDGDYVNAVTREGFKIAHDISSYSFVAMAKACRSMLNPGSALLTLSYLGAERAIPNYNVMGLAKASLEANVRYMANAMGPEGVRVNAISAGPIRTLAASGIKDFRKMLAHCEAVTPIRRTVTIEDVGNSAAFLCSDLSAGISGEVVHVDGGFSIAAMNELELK

## O=C(O)CCC(=O)C(=O)O [2-OG]
[1]
  LC-ESI-HRMS of acyl-AmcB: AmcH loads only 2-OG onto AmcB to form 2-oxoglutaryl-AmcB

## Nc1ncnc2c1ncn2[C@@H]1O[C@H](COP(=O)(O)OP(=O)(O)OP(=O)(O)O)[C@@H](O)[C@H]1O [ATP]
[2]
  HPLC of ATP consumption and AMP formation: consumption of ATP and the generation of AMP occurred in both AmcB- and 2-OG-dependent manners

## NC(=O)C1=CN([C@@H]2O[C@H](COP(=O)(O)OP(=O)(O)OC[C@H]3O[C@@H](n4cnc5c(N)ncnc54)[C@H](O)[C@@H]3O)[C@@H](O)[C@H]2O)C=CC1 [NADH]
[3]
  PPant ejection assay / LC-HRMS of 4-AmcB formation: eFabI and sFabI specifically catalyze the reduction of 3-AmcB to yield 4-AmcB
[4]
  PPant ejection assay / LC-HRMS of 4-AmcB formation: eFabI and sFabI specifically catalyze the reduction of 3-AmcB to yield 4-AmcB
